Data on four compounds can be found in ChEMBL document CHEMBL4251547, “The discovery of a pan-genotypic, primer grip inhibitor of HCV NS5B polymerase” (Medchemcomm, 2017).

Data set [1] in a line: Cmax in rat at 2 mg/kg, iv. The data set is classed as ADME, organism-based. More on the design: dose 2 mg/kg, route intravenous. To be noted: in vivo.
Data set [2] can be described thus: Cmax in rat at 6 mg/kg, po. The data set is classed as ADME, organism-based. More on the design: dose 6 mg/kg, route oral. Particulars: in vivo.
Data set [3] is described as follows: Plasma concentration in rat at 6 mg/kg, po after 24 hrs. The format is ADME, organism-based.
The test system of the next data set is Rattus norvegicus. The experiment in a line: (§1) Oral bioavailability in rat at 6 mg/kg. Particulars: in vivo. The data set is classed as ADME, organism-based.
A short description of data set [4]: Drug uptake in rat liver at 6 mg/kg, po after 24 hrs. The data set is classed as ADME, organism-based. Particulars: read-out: Drug uptake.
Data set [5] can be described thus: AUC in rat at 6 mg/kg, po. The format is ADME, organism-based. To be noted: in vivo.
A short description of data set [6]: as §1. The data set is classed as ADME, organism-based. Particulars: in vivo.
A short description of data set [7]: Drug uptake in rat liver at 6 mg/kg, po after 48 hrs. The format is ADME, organism-based. Particulars: read-out: Drug uptake.
Data set [8] can be described thus: Volume of distribution at steady state in rat at 2 mg/kg, iv or 6 mg/kg, po. The format is ADME, organism-based. To be noted: in vivo, read-out: Vdss.
Data set [9] in a line: Volume of distribution at steady state in dog at 1 mg/kg, iv or 3 mg/kg, po. The format is ADME, organism-based, Canis lupus familiaris. To be noted: in vivo, read-out: Vdss.
Data set [10] deals with Canis familiaris. The experiment in a line: AUC in dog at 3 mg/kg, po. To be noted: in vivo. The format is ADME, organism-based, Canis lupus familiaris.
For data set [11], the system named is Canis familiaris. The experiment in a line: Oral bioavailability in dog at 3 mg/kg. The data set is classed as ADME, organism-based, Canis lupus familiaris. To be noted: in vivo.
Data set [12] in a line: Volume of distribution at steady state in cynomolgus monkey at 1 mg/kg, iv or 3 mg/kg, po. The format is ADME, organism-based, Macaca fascicularis. To be noted: in vivo, read-out: Vdss.
A short description of data set [13]: AUC in cynomolgus monkey at 3 mg/kg, po. The data set is classed as ADME, organism-based, Macaca fascicularis. To be noted: in vivo.
The nature of data set [14]: Oral bioavailability in cynomolgus monkey at 3 mg/kg. The format is ADME, organism-based, Macaca fascicularis. To be noted: in vivo.

The term Cmax denotes the peak of the concentration-time curve. As to `CNC(=O)c1c(-c2ccc(F)cc2)oc2nc(NCC(F)(F)F)c(-c3cccc(C(=O)NC(C)(C)c4ncon4)c3)cc12`, the figures for the peak concentration (Cmax) in data set [1] and in data set [2] were 2500 nM and 600 nM, respectively. In data set [3], this compound came in with a concentration at 24 h of 39 nM. In the data set on Rattus norvegicus, this compound registered an F of 31%.
Usually AUC stands for the area under the concentration-time curve, a measure of exposure. One may read the bioavailability as the share of a dose that reaches the circulation, judged against a reference dose that is usually intravenous. Regarding `CNC(=O)c1c(-c2ccc(F)cc2)oc2nc(CCC(F)(F)F)c(-c3cccc(C(=O)NC45CC(C4)C5)c3)cc12`, the peak concentration (Cmax) was 3200 nM in data set [1] and 900 nM in [2]. Also, the concentration at 24 h was 900 nM in data set [4] and 160 nM in data set [3]. This compound yielded an AUC in data set [5] of 10 µM·h. This compound also gave a bioavailability in [6] of 44%. Besides, the concentration at 48 h in [7] was found to be 820 nM.
On to `CNC(=O)c1c(-c2ccc(F)cc2)oc2nc(CCC(F)(F)F)c(-c3cccc(C(=O)NC(C)(C)c4ncon4)c3)cc12`, for which the results for the maximum concentration (Cmax) in data set [1] and in data set [2] were 1700 nM and 1100 nM, respectively. The compound also displayed a concentration at 24 h in [3] of 150 nM. The figures for the AUC (in [5]; in the data set on Canis familiaris [10]; in data set [13]) were 0.15 to 13 µM·h, 25 µM·h and 8.3 µM·h, respectively. For the same compound, the bioavailability in [6] worked out at 58%; in data set [14] it was 61%. For the same compound, the Vd in data set [8] was 5.6 L/kg; in [9], 3.3 L/kg; in data set [12], 2.8 L/kg. This compound registered a F in the data set on Canis familiaris [11] of 85%.
For the compound `CCNc1nc2oc(-c3ccc(F)cc3)c(C(=O)NC)c2cc1-c1cccc(C(=O)NC(C)(C)C)c1`, the peak concentration (Cmax) in [1] turned out to be 1700 nM; in data set [2], 600 nM. The concentration at 24 h worked out at 1600 nM in data set [4] and 560 nM in [3]. In data set [5], the AUC came to 18 µM·h. This compound also returned a bioavailability in data set [6] of 64%.
